In US20240025919A1, “AZA-TETRACYCLIC OXAZEPINE COMPOUNDS AND USES THEREOF” (Genentech, Inc., priority 2022, published 2024):
Like-named read-outs stand apart in the source and are kept apart here.

How the values were obtained:
[1] = biological target: KRAS WT (Homo sapiens (Human), UniProt P01116); test: KRAS WT Biochemical Assay, BODIPY-GDP Exchange TR-FRET (Example 501; 3 nM KRAS WT, 3 nM SOS1, 60-minute incubation)
Summary of the method: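 SOS1-mediated exchange assay: 3 nM biotin-KRAS WT with terbium-streptavidin, started with 3 nM SOS1 and 300 nM BODIPY-GDP, HEPES pH 7.5 with MgCl2. TR-FRET (520/490 nm) read after 60 min; normalized to DMSO and full-inhibition control, IC50 from 4-parameter Hill fit.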

[2] = biological target: KRAS G12D (Homo sapiens (Human), UniProt P01116, G12D); test: KRAS G12D LoEnz Biochemical Assay, BODIPY-GDP Exchange TR-FRET (SOS1-mediated nucleotide exchange); conditions: read-out: KRas (G12D) GDP HTRF IC50
Chain of KRAS G12D (P01116-2 other isoform, or with tags, fused parts or gaps G12D): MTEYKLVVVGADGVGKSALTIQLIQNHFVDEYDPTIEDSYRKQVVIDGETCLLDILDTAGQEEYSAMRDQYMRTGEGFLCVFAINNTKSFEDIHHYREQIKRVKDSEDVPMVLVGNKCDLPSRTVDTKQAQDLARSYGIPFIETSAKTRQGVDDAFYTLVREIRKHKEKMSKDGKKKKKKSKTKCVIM

[3] = read-out: KRas(wt) GDP HTRF IC50

Chain of KRAS WT (P01116-2 other isoform, or with tags, fused parts or gaps): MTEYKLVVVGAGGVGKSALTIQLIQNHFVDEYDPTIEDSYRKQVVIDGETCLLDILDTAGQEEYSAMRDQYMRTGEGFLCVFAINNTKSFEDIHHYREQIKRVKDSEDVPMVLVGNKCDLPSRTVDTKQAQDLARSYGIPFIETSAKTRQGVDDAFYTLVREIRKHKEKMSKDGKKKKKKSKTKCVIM

Compound	IC50 ([1]; read-out: KRas HTRF IC50) [nM]	IC50 [2] [nM]	IC50 [1, 3] [nM]
Cc1nc(N)c(F)c(-c2nc3c4c(nc(OCC5(CN6CCOCC6)CC5)nc4c2F)N2C[C@H]4CC[C@H](N4)[C@H]2[C@H](C)O3)c1C(F)(F)F [Compound 219, 3-Fluoro-4-((5S,5aS,6S,9R)-1-fluoro-5-methyl-12-((1-(morpholinomethyl)cyclopropyl)methoxy)-5a,6,7,8,9,10-hexahydro-5H-4-oxa-3,10a,11,13,14-pentaaza-6,9-methanonaphtho[1,8-ab]heptalen-2-yl)-6-methyl-5-(trifluoromethyl)pyridin-2-amine]	47.3	0.46	–
C#Cc1cccc2cncc(-c3nc4c5c(nc(OC[C@@]67CCCN6CC6(CC6(F)F)C7)nc5c3F)N3C[C@H]5CC[C@H](N5)[C@H]3[C@H](C)O4)c12 (stereo partly drawn) [Compound 40, (5S,5aS,6S,9R)-12-(((7a′S)-2,2-difluorodihydro-1′H,3′H-spiro[cyclopropane-1,2′-pyrrolizin]-7a′(5′H)-yl)methoxy)-2-(5-ethynylisoquinolin-4-yl)-1-fluoro-5-methyl-5a,6,7,8,9,10-hexahydro-5H-4-oxa-3,10a,11,13,14-pentaaza-6,9-methanonaphtho[1,8-ab]heptalene]	–	1.3	86.8
C[C@@H]1Oc2nc(-c3cc(O)cc4ccccc34)c(F)c3nc(OC[C@]45CCN4CC(F)(F)C5)nc(c23)N2C[C@H]3CC[C@H](N3)[C@@H]12 [Compound 25, 4-((5S,5aS,6S,9R)-12-(((R)-3,3-difluoro-1-azabicyclo[3.2.0]heptan-5-yl)methoxy)-1-fluoro-5-methyl-5a,6,7,8,9,10-hexahydro-5H-4-oxa-3,10a,11,13,14-pentaaza-6,9-methanonaphtho[1,8-ab]heptalen-2-yl)naphthalen-2-ol]	–	2.04	126
C[C@@H]1Oc2nc(-c3c(F)ccc4cc[nH]c(=O)c34)c(F)c3nc(OC[C@@]45CCCN4C[C@H](F)C5)nc(c23)N2C[C@H]3CC[C@H](N3)[C@@H]12 [Compound 196, 7-Fluoro-8-((5S,5aS,6S,9R)-1-fluoro-12-(((2R,7aS)-2-fluorotetrahydro-1H-pyrrolizin-7a(5H)-yl)methoxy)-5-methyl-5a,6,7,8,9,10-hexahydro-5H-4-oxa-3,10a,11,13,14-pentaaza-6,9-methanonaphtho[1,8-ab]heptalen-2-yl)isoquinolin-1(2H)-one]	20100	248	–
Cc1nc(N)cc(-c2nc3c4c(nc(OCC5(CN6C[C@@H](C)O[C@@H](C)C6)CC5)nc4c2F)N2C[C@H]4CC[C@H](N4)[C@H]2[C@H](C)O3)c1C(F)(F)F [Compound 218, 4-((5S,5aS,6S,9R)-12-((1-(((2R,6S)-2,6-Dimethylmorpholino)methyl)cyclopropyl)methoxy)-1-fluoro-5-methyl-5a,6,7,8,9,10-hexahydro-5H-4-oxa-3,10a,11,13,14-pentaaza-6,9-methanonaphtho[1,8-ab]heptalen-2-yl)-6-methyl-5-(trifluoromethyl)pyridin-2-amine]	14.1	0.29	–
C[C@@H]1Oc2nc(-c3cc(N)c(F)c(F)c3CC(F)(F)F)c(F)c3nc(OC[C@@]45CCCN4C[C@H](F)C5)nc(c23)N2C[C@H]3CC[C@H](N3)[C@@H]12 [Compound 183, 2,3-Difluoro-5-((5S,5aS,6S,9R)-1-fluoro-12-(((2R,7aS)-2-fluorotetrahydro-1H-pyrrolizin-7a(5H)-yl)methoxy)-5-methyl-5a,6,7,8,9,10-hexahydro-5H-4-oxa-3,10a,11,13,14-pentaaza-6,9-methanonaphtho[1,8-ab]heptalene-2-yl)-4-(2,2,2-trifluoroethyl)aniline]	4.46	0.21	–
Cc1nc(N)cc(-c2nc3c4c(nc(OCC5(CN6C[C@@H]7C[C@H]6CO7)CC5)nc4c2F)N2C[C@H]4CC[C@H](N4)[C@H]2[C@H](C)O3)c1C(F)(F)F [Compound 208, 4-((5S,5aS,6S,9R)-12-((1-(((1S,4S)-2-Oxa-5-azabicyclo[2.2.1]heptan-5-yl)methyl)cyclopropyl)methoxy)-1-fluoro-5-methyl-5a,6,7,8,9,10-hexahydro-5H-4-oxa-3,10a,11,13,14-pentaaza-6,9-methanonaphtho[1,8-ab]heptalene-2-yl)-6-methyl-5-(trifluoromethyl)pyridin-2-amine]	24.7	0.31	–
Cc1cc(N)c(F)c(-c2nc3c4c(nc(OCC56CCN5CC(F)(F)C6)nc4c2F)N2C[C@H]4CC[C@H](N4)[C@H]2[C@H](C)O3)c1C(F)(F)F (mixture of isomers) [Compound 33, 3-((5S,5aS,6S,9R)-12-((3,3-Difluoro-1-azabicyclo[3.2.0]heptan-5-yl)methoxy)-1-fluoro-5-methyl-5a,6,7,8,9,10-hexahydro-5H-4-oxa-3,10a,11,13,14-pentaaza-6,9-methanonaphtho[1,8-ab]heptalen-2-yl)-2-fluoro-5-methyl-4-(trifluoromethyl)aniline]	–	0.23	7.53
C[C@@H]1Oc2nc(-c3cc(N)c(F)cc3C(F)(F)F)c(F)c3nc(OC[C@@]45CCCN4C[C@H](F)C5)nc(c23)N2C[C@H]3CC[C@H](N3)[C@@H]12 [Compound 14, 2-fluoro-5-((5S,5aS,6S,9R)-1-fluoro-12-(((2R,7aS)-2-fluorotetrahydro-1H-pyrrolizin-7a(5H)-yl)methoxy)-5-methyl-5a,6,7,8,9,10-hexahydro-5H-4-oxa-3,10a,11,13,14-pentaaza-6,9-methanonaphtho[1,8-ab]heptalen-2-yl)-4-(trifluoromethyl)aniline]	–	0.26	6.58
Cc1c(F)c(N)c(F)c(-c2nc3c4c(nc(OC[C@@]56CCCN5C/C(=C\F)C6)nc4c2F)N2C[C@H]4CC[C@H](N4)[C@H]2[C@H](C)O3)c1C(F)(F)F [Compound 229, 2,6-Difluoro-3-((5S,5aS,6S,9R)-1-fluoro-12-(((S,Z)-2-(fluoromethylene)tetrahydro-1H-pyrrolizin-7a(5H)-yl)methoxy)-5-methyl-5a,6,7,8,9,10-hexahydro-5H-4-oxa-3,10a,11,13,14-pentaaza-6,9-methanonaphtho[1,8-ab]heptalene-2-yl)-5-methyl-4-(trifluoromethyl)aniline]	12	0.36	–
CCc1c(F)c(N)cc(-c2nc3c4c(nc(OC[C@@H]5CC[C@H]6COCCN65)nc4c2F)N2C[C@H]4CC[C@H](N4)[C@H]2[C@H](C)O3)c1C(F)(F)F [Compound 232, 3-Ethyl-2-fluoro-5-((5S,5aS,6S,9R)-1-fluoro-12-(((6S,8aS)-hexahydro-1H-pyrrolo[2,1-c][1,4]oxazin-6-yl)methoxy)-5-methyl-5a,6,7,8,9,10-hexahydro-5H-4-oxa-3,10a,11,13,14-pentaaza-6,9-methanonaphtho[1,8-ab]heptalen-2-yl)-4-(trifluoromethyl)aniline]	277	2.86	–
Cc1c(F)c(N)c(F)c(-c2nc3c4c(nc(OC[C@@H]5C[C@@H](F)CN5C)nc4c2F)N2C[C@H]4CC[C@H](N4)[C@H]2[C@H](C)O3)c1C(F)(F)F [Compound 228, 2,6-Difluoro-3-((5S,5aS,6S,9R)-1-fluoro-12-(((2S,4R)-4-fluoro-1-methylpyrrolidin-2-yl)methoxy)-5-methyl-5a,6,7,8,9,10-hexahydro-5H-4-oxa-3,10a,11,13,14-pentaaza-6,9-methanonaphtho[1,8-ab]heptalen-2-yl)-5-methyl-4-(trifluoromethyl)aniline]	4880	370	–
Cc1c(F)c(N)cc(-c2nc3c4c(nc(OC[C@@]56CCCN5C[C@H](F)C6)nc4c2F)N2C[C@H]4CC[C@H](N4)[C@H]2[C@H](C(F)(F)F)O3)c1C(F)(F)F [Compound 247, 2-Fluoro-5-((5R,5aS,6S,9R)-1-fluoro-12-(((2R,7aS)-2-fluorotetrahydro-1H-pyrrolizin-7a(5H)-yl)methoxy)-5-(trifluoromethyl)-5a,6,7,8,9,10-hexahydro-5H-4-oxa-3,10a,11,13,14-pentaaza-6,9-methanonaphtho[1,8-ab]heptalene-2-yl)-3-methyl-4-(trifluoromethyl)aniline]	0.959	0.21	–
Cc1c(F)c(N)cc(-c2nc3c4c(nc(OC[C@@]56CCCN5C[C@H](F)C6)nc4c2F)N2CCNC[C@H]2C(C)O3)c1C(F)(F)F (single isomer, unassigned) [235 (isomer 2)]	2.63	0.48	–
C[C@@H]1Oc2nc(-c3cncc4ccccc34)c(F)c3nc(OC[C@@]45CCCN4CC4(CC4(F)F)C5)nc(c23)N2C[C@H]3CC[C@H](N3)[C@@H]12 (stereo partly drawn) [Compound 30, (5S,5aS,6S,9R)-12-(((7a′S)-2,2-difluorodihydro-1′H,3′H-spiro[cyclopropane-1,2′-pyrrolizin]-7a′(5′H)-yl)methoxy)-1-fluoro-2-(isoquinolin-4-yl)-5-methyl-5a,6,7,8,9,10-hexahydro-5H-4-oxa-3,10a,11,13,14-pentaaza-6,9-methanonaphtho[1,8-ab]heptalene]	–	19.4	598
Cc1nc(N)cc(-c2nc3c4c(nc(OC[C@@]56CCCN5C[C@H](F)C6)nc4c2F)N2C[C@H]4CC[C@H](N4)[C@H]2[C@H](C)O3)c1CC(F)(F)F [Compound 185, 4-((5S,5aS,6S,9R)-1-Fluoro-12-(((2R,7aS)-2-fluorotetrahydro-1H-pyrrolizin-7a(5H)-yl)methoxy)-5-methyl-5a,6,7,8,9,10-hexahydro-5H-4-oxa-3,10a,11,13,14-pentaaza-6,9-methanonaphtho[1,8-ab]heptalene-2-yl)-6-methyl-5-(2,2,2-trifluoromethyl)pyridin-2-amine]	107	1.1	–
